Tests used:
Format in all cases: functional
SK-BR-3 = assay: Cytotoxicity against human SK-BR-3 cells after 72 hrs by SRB assay; settings: SK-BR-3, 72 h
HT-29 = assay: Cytotoxicity against human HT29 cells after 72 hrs by SRB assay; settings: HT-29, 72 h
SK-MEL-28 = assay: Cytotoxicity against human SK-MEL-28 cells after 72 hrs by SRB assay; settings: SK-MEL-28, 72 h
LoVo [1] = assay: Cytotoxicity against human LoVo cells after 72 hrs by SRB assay
[2] = Cytotoxicity against human IGROV cells after 72 hrs by SRB assay
LNCaP = assay: Cytotoxicity against human LNCAP cells after 72 hrs by SRB assay
K562 = assay: Cytotoxicity against human K562 cells after 72 hrs by SRB assay; settings: K562, 72 h
DU-145 = assay: Cytotoxicity against human DU145 cells after 72 hrs by SRB assay; settings: DU-145, 72 h
A549 = assay: Cytotoxicity against human A549 cells after 72 hrs by SRB assay; settings: A549, 72 h
PANC-1 = assay: Cytotoxicity against human PANC1 cells after 72 hrs by SRB assay; settings: PANC-1, 72 h
LoVo [3] = assay: Cytotoxicity against human doxorubicin-resistant LoVo cells after 72 hrs by SRB assay
SK-OV-3 = assay: Cytotoxicity against human SKOV3 cells after 72 hrs by SRB assay; settings: SK-OV-3, 72 h
[4] = Cytotoxicity against human IGROV-ET cells after 72 hrs by SRB assay

Measured: GI50

C[C@H]1CC[C@@]23C[C@]2(C)CCC[C@@H]3[C@@]1(C)CC[C@@]1(C)CCn2cnc3ncnc(c32)N1O [ASMARINE I]
5 µM: all assays above

C[C@H]1CC[C@@]23C[C@]2(C)CCC[C@@H]3[C@@]1(C)CC[C@@]1(C)CCn2cnc3ncnc(c32)N1 [ASMARINE J]
5 µM: all assays above

C=C1CCC[C@@H]2[C@@](C)(CC[C@@]3(C)CCn4cnc5ncnc(c54)N3)[C@H](C)CC[C@@]12C [ASMARINE K]
5 µM: all assays above
